US12433908B2, “Use of nicotinamide riboside, nicotinic acid riboside, and nicotinamide mononucleotide, reduced nicotinyl compounds, and nicotinoyl compound derivatives in infant formula for healthy development” (ChromaDex, Inc., priority 2016, dated 2025)

Tests used:
[1] = Stability of NR in liquid (water, milk); assay type: physicochemical
[2] = Body weight of early-weaned piglets given NR solution; assay type: in vivo, piglets (Yorkshire/Hampshire crossbred)
Description: Sixteen (n=16) Yorkshire/Hampshire crossbred piglets were obtained from the University of California, Davis Swine Teaching and Research Center and received on lactation day (“LD”) 14. Prior to arrive, the piglets were processed by the suppler between 1-3 days of age by administration of iron and an antibiotic (Excede for swine) as is common practice at the University of California, Davis Swine Facility. It is not common practice at the University of California, Davis Swine Facility to give a second dose of iron and antibiotics unless it becomes necessary.
The piglets were from two litters (litters 15 and 17), weaned at 17 days of age, and randomly placed into one of two groups balanced for litter, sex, and weight. The animals were not acclimated to the facility at arrival and were subsequently acclimated to the test diet administration system. The piglets were weaned into a temperature-controlled room (approximately 27-29° C.) that contained 10 adjacent pens. The piglets were group-housed in the nursery room at the Swine Facility, which is an enclosed room with access restricted to trained personnel. The two groups were separated by one pen containing piglets of similar age.
Each morning enough nicotinamide riboside (NR, I) in water solution was prepared for that day's dose administration according to the dose preparation protocol. At least 5 mL of prepared dose was reserved and immediately frozen after preparation each day for analysis of nicotinamide riboside (NR, I) for the purpose of confirming stability of the dose material. The doses were stored at refrigeration temperature while not in use. Nicotinamide riboside (NR, I) was dosed once per day in the morning and at the same time each day. Piglets in the control group received the same volume of plain water and were dosed on the same schedule.
The daily amount of nicotinamide riboside (NR, I) approximated the dose (33 mg/kg) used in human investigations of efficacy in areas of mitochondrial dysfunction converted to piglet equivalent dose using the body surface area method. See A. B. Nair & S. Jacob, A simple practice guide for dose conversion between animals and human, 7 J. BASIC CLIN. PHARMA 27 (2016), incorporated by reference herein in its entirety.
Starting on Day 1, animals in the nicotinamide riboside (NR, I) group were dosed once daily (in the morning) with 277 mg nicotinamide riboside (NR, I) per pig resuspended in water for seven days. After one week, animals were dosed once daily with 342 mg nicotinamide riboside (NR, I) per pig delivered in 2.5 mL for seven days. For Days 1 and 2, the nicotinamide riboside (NR, I) solution was prepared by resuspending 2770 mg nicotinamide riboside (NR, I) in 50 mL water, and 5 mL of this solution was delivered to each pig by squirting it into the back of the mouth using a 10 mL syringe with a piece of tubing attached to the end. To reduce the volume to more efficiently deliver the nicotinamide riboside (NR, I) solution, the 2770 mg was resuspended in 25 mL water and 2.5 mL of the solution was squirted into the back of the mouth of each pig using a 3 mL syringe for Days 3-7. […]
All animals were weighed at weaning (baseline) and after one and two weeks of nicotinamide riboside (NR, I) supplementation. Fecal and activity scores were recorded daily using the scales listed below. Weights and fecal scores were analyzed using a two-factor repeated measures ANOVA (mixed-model ANOVA) with p values<0.05 considered significant. […]

[3] = Fecal and activity scores of piglets given NR solution; assay type: in vivo, piglets (Yorkshire/Hampshire crossbred); settings: for Activity Score: scale 4=alert, attentive to 1=very lethargic; for Fecal Score: scale 4=normal (solid) to 1=severe diarrhea (liquid)
Description: Sixteen (n=16) Yorkshire/Hampshire crossbred piglets were obtained from the University of California, Davis Swine Teaching and Research Center and received on lactation day (“LD”) 14. Prior to arrive, the piglets were processed by the suppler between 1-3 days of age by administration of iron and an antibiotic ([…] for swine) as is common practice at the University of California, Davis Swine Facility. It is not common practice at the University of California, Davis Swine Facility to give a second dose of iron and antibiotics unless it becomes necessary. The piglets were from two litters (litters 15 and 17), weaned at 17 days of age, and randomly placed into one of two groups balanced for litter, sex, and weight. The animals were not acclimated to the facility at arrival and were subsequently acclimated to the test diet administration system. The piglets were weaned into a temperature-controlled room (approximately 27-29° C.) that contained 10 adjacent pens. The piglets were group-housed in the nursery room at the Swine Facility, which is an enclosed room with access restricted to trained personnel. The two groups were separated by one pen containing piglets of similar age. Each morning enough nicotinamide riboside (NR, I) in water solution was prepared for that day's dose administration according to the dose preparation protocol. At least 5 mL of prepared dose was reserved and immediately frozen after preparation each day for analysis of nicotinamide riboside (NR, I) for the purpose of confirming stability of the dose material. The doses were stored at refrigeration temperature while not in use. Nicotinamide riboside (NR, I) was dosed once per day in the morning and at the same time each day. Piglets in the control group received the same volume of plain water and were dosed on the same schedule. Starting on Day 1, animals in the nicotinamide riboside (NR, I) group were dosed once daily (in the morning) with 277 mg nicotinamide riboside (NR, I) per pig resuspended in water for seven days. After one week, animals were dosed once daily with 342 mg nicotinamide riboside (NR, I) per pig delivered in 2.5 mL for seven days. For Days 1 and 2, the nicotinamide riboside (NR, I) solution was prepared by resuspending 2770 mg nicotinamide riboside (NR, I) in 50 mL water, and 5 mL of this solution was delivered to each pig by squirting it into the back of the mouth using a 10 mL syringe with a piece of tubing attached to the end. To reduce the volume to more efficiently deliver the nicotinamide riboside (NR, I) solution, the 2770 mg was resuspended in 25 mL water and 2.5 mL of the solution was squirted into the back of the mouth of each pig using a 3 mL syringe for Days 3-7. For Days 8-14, 3420 mg nicotinamide riboside (NR, I) was resuspended in 25 mL water and 2.5 mL of this solution was delivered to each pig. Each day prior to dosing, 2.5 mL of the nicotinamide riboside (NR, I) (5 mL on Days 1 and 2) were placed into a separate tube and frozen. All animals were weighed at weaning (baseline) and after one and two weeks of nicotinamide riboside (NR, I) supplementation. Fecal and activity scores were recorded daily using the scales listed below. Weights and fecal scores were analyzed using a two-factor repeated measures ANOVA (mixed-model ANOVA) with p values<0.05 considered significant. The fecal consistency scale used is as follows: 4=normal (solid); 3=soft feces (semi-solid); 2=mild diarrhea (semi liquid); 1=severe diarrhea (liquid).

[4] = Wk 1, 277 mg/pig once daily oral
[5] = Wk 2, 342 mg/pig once daily oral Days 8-14

stability in milk ([1]; cow's milk and human breast milk): stable in milk
stability in water ([1]; in water): unstable over time
fecal scores, NR vs. control ([3]; 2-week intervention): not statistically different
Activity Score ([3]; Baseline, before dosing): 4.0
Fecal Score ([3]; Baseline, before dosing): 3.78 ± 0.39
Activity Score [3, 4]: 4.0
Fecal Score [3, 4]: 2.93 ± 0.67
Activity Score [3, 5]: 4.0
Fecal Score [3, 5]: 2.90 ± 0.60
SMILES: NC(=O)c1ccc[n+]([C@@H]2O[C@H](CO)[C@@H](O)[C@H]2O)c1 [NR, Nicotinamide riboside]
health, nutritional quality, normal growth of piglets weaned 7 days early ([2]; 2-week feeding of NR): did not negatively impact the health, nutritional quality, or normal growth
Weight ([2]; Baseline, before dosing): 7.77 ± 1.33 kg
body weight, NR vs. control ([2]; Week 1 or Week 2 of treatment): no differences in body weight
Weight [2, 4]: 8.33 ± 1.56 kg
Weight [2, 5]: 9.39 ± 1.61 kg
